Like-named read-outs stand apart in the source and are kept apart here.
Tests used:
[1] = tested on: androgen and oestrogen receptors; assay: ED assays of androgen and oestrogen receptors (overall experimental ED result); format: cell-based
Method: The transcriptional activation of androgen receptor (AR) assays was carried out by adapting the OECD protocol 458 (OECD [2020]).
MDA-MB-453 cells (8000 cells/well) expressing an AR luciferase reporter were seeded into 384 white plates (Greiner 781098) in culture medium (DMEM (ATCC), 10% foetal bovine serum (Sigma Aldrich), 1% penicillin–streptomycin (Sigma-Aldrich), 75 µg/ml geneticin (Gibco) and incubated overnight at 37 °C 5% CO2 and 95% humidity. After this time, the cell culture medium was discarded and replaced by assay medium (DMEM (ATCC), 0.1% foetal bovine serum (Sigma-Aldrich), and 1% penicillin–streptomycin (Sigma Aldrich)).
For studying a putative agonist effect, compounds were added to the assay plate using an Echo 550 acoustic liquid handler and incubated overnight at 37 °C 5% CO2 and 95% humidity. For studying the putative antagonist effect, compounds were added using an Echo 550 acoustic liquid handler and incubated for 15 min at 37 °C 5% CO2 and 95% humidity. Then, 1 nM 5α-dihydrotestosterone (DHT) was added, and the cell plate was incubated overnight at 37 °C, 5% CO2, and 95% humidity. After compound incubation, the cell medium was removed, 5 µl of lysis buffer 1X (Promega) was added, and the cell plate was incubated with agitation 15 min at room temperature. A freeze–thaw cycle of 10 min at −80 °C and room temperature was performed. Then 25 µl of luciferase assay reagent (Promega) was added and luminescence was determined on an EnSpire plate reader (Perkin Elmer). Data was fitted to a four-parameter sigmoidal model with Prism 5.1 (Graphpad, Inc).
The transcriptional activation of oestrogen receptor (ER) assay was carried out by adapting the OECD protocol 455 (OECD [2021]) and the method of Li et al. ([2013]).
ER luciferase reporter T47D cells (5000 cells/well) were seeded into 384 white plates (Greiner 781098) in culture medium (RPMI 1640 (Thermo Fisher Scientific 52400), 10% foetal bovine serum (Sigma Aldrich F9665), 1% penicillin–streptomycin (Sigma-Aldrich P0781), 75 µg/ml Geneticin (Gibco 10131)) and incubated overnight at 37 °C and 5% CO2. The following day, the cell culture medium was discarded and replaced by assay medium (RPMI 1640 (Thermo Fisher Scientific 52,400), 0.1% foetal bovine serum (Sigma Aldrich F9665), and 1% penicillin–streptomycin (Sigma Aldrich P0781).
The assay was performed as stated before for the AR assay using 17β-estradiol as agonist instead of DHT.
ED was assessed by transactivation in vitro assays to identify agonists and antagonists of the androgen and oestrogen receptors.
Also, the experimental group analysed the endocrine-disrupting activity for the CMR compounds.

[2] = logKow as a measure of bioaccumulation, extracted from public databases; format: physicochemical; settings: yes/no by logKow, REACH cut off 4,5
[3] = PBT assessment (persistence, bioaccumulation and FET toxicity combined, logical AND); settings: persistent, bioaccumulative and toxic all positive
Method: (§1) Acute toxicity was determined using the OECD236 fish embryo acute toxicity (FET) test (OECD guidelines). To assess the PBT potentiality of the analysed compounds, persistence and the logKow as a measure of bioaccumulation were extracted from public databases (https://comptox.epa.gov/dashboard, and https://echa.europa.eu/es/information-on-chemicals).
Ecotoxicity of selected compounds was screened with the FET assay to determine acute toxicity and using available predictions of persistence and bioaccumulation.

[4] = parameters: method as in earlier work; settings: experimental value; ref https://comptox.epa.gov/dashboard, https://echa.europa.eu/es/information-on-chemicals; cited from earlier work
thyroid system = settings: cited from earlier work
zebrafish embryos = settings: FET assay
Method: as §1

Row | Structure (SMILES) | Experimental result ([1]; endocrine disruptor yes/no) | Bioaccumulation [2] | Potential PBT [3] | Bioaccumulation (logKow) [4] | also measured
1 | Clc1cc(Cl)c(Cl)c(Cl)c1 [1,2,3,5-Tetrachlorobenzene] | No | Yes | YES | 4.61 | Potential PBT ([3]; listed as 1,2,3,5-tetrachlorobenzene): potential PBT compounds; endocrine-disrupting activity (thyroid system; ref Chu et al. [1983], den Besten et al. [1991]): thyroid system affection
2 | Oc1cc(Cl)cc(Cl)c1Cl [2,3,5-Trichlorophenol] | – | No | not a potential PBT compound | 3.84 | Experimental result [1]: Yes
3 | Clc1cc(Cl)c(Cl)c(Cl)c1Cl [1,2,3,4,5-Pentachlorobenzene] | – | Yes | – | 5.17 | Potential PBT ([3]; listed as Pentachlorobenzene): YES; Potential PBT ([3]; listed as pentachlorobenzene): potential PBT compounds
4 | ClC1C(Cl)C(Cl)C(Cl)C(Cl)C1Cl (stereo not drawn) [(1α,2α,3α,4β,5α,6β)-1,2,3,4,5,6-Hexachlorocyclohexane] | – | No | – | 3.95 | acute toxicity (zebrafish embryos): highly toxic
5 | O=C(O)C(F)(F)C(F)(F)C(F)(F)C(F)(F)F [Nonafluorovaleric acid] | No | – | – | – | endocrine-disrupting activity (thyroid system; ref Coperchini et al. [2021], Croce et al. [2019]): thyroid system affection

From article PMC10025185, “A continuous in silico learning strategy to identify safety liabilities in compounds used in the leather and textile industry” (Archives of Toxicology, 2023)
